Experimental data taken from PubChem BioAssay (NCI).
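Interpolation was linear, between the two tested concentrations surrounding the appropriate level; five concentrations were tested over 48 hours in 96-well plates. GI50 = concentration required for 50% inhibition of growth. TGI denotes the concentration required for complete inhibition of growth.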

How the values were obtained:
Experiment in all cases: NCI tumour cell line growth inhibition, 48 h
NCI/ADR-RES ovarian = system: NCI/ADR-RES ovarian
NCI-H226 lung = system: NCI-H226 lung
MCF7 breast = system: MCF7 breast
T-47D breast = system: T-47D breast
MDA-MB-231 breast = system: MDA-MB-231 breast
PC-3 prostate = system: PC-3 prostate
MDA-N = system: MDA-N
BT-549 breast = system: BT-549 breast
HOP-18 NSCLC = system: HOP-18 NSCLC
M19-MEL melanoma = system: M19-MEL melanoma
DMS 273 small cell lung = system: DMS 273 small cell lung
786-0 renal = system: 786-0 renal
SN12K1 renal = system: SN12K1 renal
XF 498 CNS = system: XF 498 CNS
P388 leukemia = system: P388 leukemia

SMILES	TGI (NCI/ADR-RES ovarian) [µM]	TGI (NCI-H226 lung) [µM]	TGI (MCF7 breast) [µM]	TGI (T-47D breast) [µM]	TGI (MDA-MB-231 breast) [µM]	TGI (PC-3 prostate) [µM]	TGI (MDA-N) [µM]	TGI (BT-549 breast) [µM]	TGI (M19-MEL melanoma) [µM]	TGI (DMS 273 small cell lung) [µM]	TGI (786-0 renal) [µM]	TGI (XF 498 CNS) [µM]	other results
CC(C)(C)[Si](C)(C)OCC1OC(n2cnc3c(N)ncnc32)CC1O (stereo not drawn)	> 100	> 100	> 100	> 100	> 100	> 100	> 100	> 100					
Cc1cc(C)n(-c2nsc3ccccc23)n1									> 100	> 100			TGI (HOP-18 NSCLC): > 100 µM
CCN(CC)CCNc1ccc2nnn3c4ccc(C)cc4c(=O)c1c23		23.9							27.8		18.6		
N#CN=[N+]([O-])c1ccc(C(=O)O)cc1	39.9	40.9	38.8			31.2		31.4					
Fc1ccc(C2CC(c3cccc(Nc4ccncc4)c3)=NN2c2ccc(Cl)cc2)cc1 (stereo not drawn)	3.48		3.5		2.86	3.19		4.26					GI50 (NCI/ADR-RES ovarian): 1.82 µM; GI50 (MCF7 breast): 1.75 µM; GI50 (MDA-MB-231 breast): 1.51 µM; GI50 (PC-3 prostate): 1.63 µM; GI50 (BT-549 breast): 2.04 µM
O=C1CSC(=S)N1	> 100	> 100	> 100	> 100	> 100	> 100	> 100				> 100		
CC(=O)c1ccc2c(c1)c1c(C)c3c[n+](C)ccc3c(C)c1n2C	> 100	11.8	> 29						23.7	18.8		17.1	TGI (HOP-18 NSCLC): 75.9 µM; TGI (SN12K1 renal): 13.7 µM; TGI (P388 leukemia): 4.68 µM
Cc1ccc2c(c1)C(=O)N(N(C)C)CC(=O)N2		> 100							> 100	> 100		> 100	TGI (HOP-18 NSCLC): > 100 µM
NCCCOc1ccc([N+](=O)[O-])cc1Cl		> 100							> 100	> 100	> 100	> 100	
Cc1cc2c(cc1C)OC(=O)CC2	> 100	> 100	> 100	> 100	> 100	> 100	> 100	> 100			> 100		
O=C1NC2=C(CCCC/C2=N\O)C12CCCCC2		> 100							> 100			> 100	
CC(=O)OCC1=C(C(=O)O)N2C(=O)C(NC(=O)CSc3ccncc3)C2SC1 (stereo not drawn)	> 100	> 100	> 100	> 100	> 100	> 100	> 100	> 100			> 100		
Brc1ccc(C2CC(c3cccc4ccccc34)=Nc3ccccc3S2)cc1 (stereo not drawn)		> 100							> 100	> 100		> 100	
CCOC(=O)NC(Nc1ncccn1)(C(=O)OCC)C(F)(F)F (stereo not drawn)	> 100		> 100	> 100	> 100	> 100	> 100	> 100					
